Several values for one entry are separate records, joined by “and”; a condition that tells them apart may be missing. Equal values may be shown once. Activity calls are given as the source filed them.
Key:
[1] = target: T1, RNA-binding protein pos-1 (Caenorhabditis elegans, UniProt G5EF15); assay: disruptors of C. elegans POS-1 RNA interaction – biochemical, fluorescence polarization, dose response (AID 1964);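 note: purified POS-1 fused to maltose binding protein made in E. coli; potency of compounds blocking POS-1 binding to fluorescent RNA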
T1 sequence (G5EF15 whole entry): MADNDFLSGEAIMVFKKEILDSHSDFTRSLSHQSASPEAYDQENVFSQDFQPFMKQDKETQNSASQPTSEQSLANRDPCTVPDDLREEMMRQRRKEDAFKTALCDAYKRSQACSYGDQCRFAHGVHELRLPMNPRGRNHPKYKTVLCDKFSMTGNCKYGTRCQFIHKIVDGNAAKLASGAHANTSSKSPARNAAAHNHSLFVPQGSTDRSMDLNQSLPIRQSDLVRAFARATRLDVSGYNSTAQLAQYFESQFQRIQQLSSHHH

[2] = target: T2, Zinc finger protein mex-5 (Caenorhabditis elegans, UniProt Q9XUB2); assay: potency of MEX-5 RNA-binding blockers – biochemical, C. elegans, fluorescence polarization, dose response (AID 1960)
T2 sequence (Q9XUB2 whole entry): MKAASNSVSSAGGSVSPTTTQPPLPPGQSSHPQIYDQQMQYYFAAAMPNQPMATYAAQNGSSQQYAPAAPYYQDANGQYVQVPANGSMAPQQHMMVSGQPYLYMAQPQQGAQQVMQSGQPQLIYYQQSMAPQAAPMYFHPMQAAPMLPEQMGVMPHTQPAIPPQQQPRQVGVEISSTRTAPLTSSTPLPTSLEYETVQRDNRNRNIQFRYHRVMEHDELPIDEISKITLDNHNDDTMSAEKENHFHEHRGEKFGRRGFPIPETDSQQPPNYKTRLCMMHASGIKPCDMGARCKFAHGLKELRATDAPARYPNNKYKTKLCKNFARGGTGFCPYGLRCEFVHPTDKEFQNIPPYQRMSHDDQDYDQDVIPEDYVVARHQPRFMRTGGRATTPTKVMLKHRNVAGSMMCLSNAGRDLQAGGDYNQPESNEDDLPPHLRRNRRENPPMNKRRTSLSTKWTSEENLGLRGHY

[3] = target: T3, Voltage-gated N-type calcium channel alpha-1B subunit/Amyloid beta A4 precursor protein-binding family A member 1 (Homo sapiens, UniProt Q00975+Q02410); format: protein assay
[4] = target: T3, Voltage-gated N-type calcium channel alpha-1B subunit/Amyloid beta A4 precursor protein-binding family A member 1; format: protein assay; remark: listed apart in the source
[5] = target: Induced myeloid leukemia cell differentiation protein Mcl-1 (Homo sapiens, UniProt Q07820); format: functional
Hexokinase HKDC1 = target: T4, Hexokinase HKDC1 (Homo sapiens, UniProt Q2TB90); assay: inhibition of HKDC1 glucose phosphorylation – biochemical, W721R variant, dose response (AID 504729); format: functional
T4 sequence (Q2TB90 whole entry): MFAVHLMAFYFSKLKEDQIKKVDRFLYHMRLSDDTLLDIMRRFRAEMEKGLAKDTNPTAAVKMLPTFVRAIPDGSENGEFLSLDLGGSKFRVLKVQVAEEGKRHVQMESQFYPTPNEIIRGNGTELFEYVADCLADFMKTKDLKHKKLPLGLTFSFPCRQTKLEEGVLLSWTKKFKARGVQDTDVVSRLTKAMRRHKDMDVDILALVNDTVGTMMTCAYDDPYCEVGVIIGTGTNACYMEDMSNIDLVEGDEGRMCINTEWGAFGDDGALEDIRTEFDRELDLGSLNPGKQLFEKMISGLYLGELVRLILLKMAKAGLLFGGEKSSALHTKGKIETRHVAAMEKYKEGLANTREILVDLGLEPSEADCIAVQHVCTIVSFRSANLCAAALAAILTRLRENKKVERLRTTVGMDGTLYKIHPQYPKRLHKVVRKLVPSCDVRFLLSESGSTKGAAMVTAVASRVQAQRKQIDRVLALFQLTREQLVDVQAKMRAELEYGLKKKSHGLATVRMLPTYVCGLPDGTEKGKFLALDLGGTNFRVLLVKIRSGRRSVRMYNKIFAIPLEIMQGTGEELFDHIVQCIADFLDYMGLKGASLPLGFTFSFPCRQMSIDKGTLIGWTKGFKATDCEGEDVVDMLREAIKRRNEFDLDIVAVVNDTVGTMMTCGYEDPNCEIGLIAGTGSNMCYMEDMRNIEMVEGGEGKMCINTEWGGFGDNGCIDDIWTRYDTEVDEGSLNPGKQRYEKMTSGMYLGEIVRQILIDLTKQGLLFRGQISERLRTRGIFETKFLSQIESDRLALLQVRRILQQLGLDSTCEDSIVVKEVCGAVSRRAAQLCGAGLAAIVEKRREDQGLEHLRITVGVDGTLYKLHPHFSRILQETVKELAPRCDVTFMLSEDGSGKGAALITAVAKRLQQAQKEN

Vero [6] = assay: viability of Vero cells under compound – cytotoxicity control for flavivirus capping enzyme inhibitors (AID 588742); format: functional; details: Chlorocebus sabaeus
Vero [7] = assay: cells; format: functional; details: Chlorocebus sabaeus
Genome polyprotein = Genome polyprotein (dengue virus type 2, UniProt P29990); assay: flavivirus cap methylation enzyme inhibition – biochemical, confirmation dose response, primary screen (AID 588689); format: functional
[8] = target: T5, Polyadenylate-binding protein 1 (Homo sapiens, UniProt P11940); assay: MLLE binding blockers, Cy5 peptide tracer – biochemical, fluorescence polarization, Cy5-PAM2 peptide, secondary, miRNA deadenylation inhibitor project, dose response (AID 602260); format: functional; details: read-out: IC50_Mean
[9] = target: T5, Polyadenylate-binding protein 1; assay: MLLE domain peptide-binding blockers, IC50 – biochemical, fluorescence polarization, FITC-PAM2 peptide, dose response (AID 602259); format: functional; details: read-out: IC50_Mean
[10] = target: T6, Histone-lysine N-methyltransferase NSD2 (Homo sapiens, UniProt O96028); format: biochemical
T6 sequence (O96028 whole entry): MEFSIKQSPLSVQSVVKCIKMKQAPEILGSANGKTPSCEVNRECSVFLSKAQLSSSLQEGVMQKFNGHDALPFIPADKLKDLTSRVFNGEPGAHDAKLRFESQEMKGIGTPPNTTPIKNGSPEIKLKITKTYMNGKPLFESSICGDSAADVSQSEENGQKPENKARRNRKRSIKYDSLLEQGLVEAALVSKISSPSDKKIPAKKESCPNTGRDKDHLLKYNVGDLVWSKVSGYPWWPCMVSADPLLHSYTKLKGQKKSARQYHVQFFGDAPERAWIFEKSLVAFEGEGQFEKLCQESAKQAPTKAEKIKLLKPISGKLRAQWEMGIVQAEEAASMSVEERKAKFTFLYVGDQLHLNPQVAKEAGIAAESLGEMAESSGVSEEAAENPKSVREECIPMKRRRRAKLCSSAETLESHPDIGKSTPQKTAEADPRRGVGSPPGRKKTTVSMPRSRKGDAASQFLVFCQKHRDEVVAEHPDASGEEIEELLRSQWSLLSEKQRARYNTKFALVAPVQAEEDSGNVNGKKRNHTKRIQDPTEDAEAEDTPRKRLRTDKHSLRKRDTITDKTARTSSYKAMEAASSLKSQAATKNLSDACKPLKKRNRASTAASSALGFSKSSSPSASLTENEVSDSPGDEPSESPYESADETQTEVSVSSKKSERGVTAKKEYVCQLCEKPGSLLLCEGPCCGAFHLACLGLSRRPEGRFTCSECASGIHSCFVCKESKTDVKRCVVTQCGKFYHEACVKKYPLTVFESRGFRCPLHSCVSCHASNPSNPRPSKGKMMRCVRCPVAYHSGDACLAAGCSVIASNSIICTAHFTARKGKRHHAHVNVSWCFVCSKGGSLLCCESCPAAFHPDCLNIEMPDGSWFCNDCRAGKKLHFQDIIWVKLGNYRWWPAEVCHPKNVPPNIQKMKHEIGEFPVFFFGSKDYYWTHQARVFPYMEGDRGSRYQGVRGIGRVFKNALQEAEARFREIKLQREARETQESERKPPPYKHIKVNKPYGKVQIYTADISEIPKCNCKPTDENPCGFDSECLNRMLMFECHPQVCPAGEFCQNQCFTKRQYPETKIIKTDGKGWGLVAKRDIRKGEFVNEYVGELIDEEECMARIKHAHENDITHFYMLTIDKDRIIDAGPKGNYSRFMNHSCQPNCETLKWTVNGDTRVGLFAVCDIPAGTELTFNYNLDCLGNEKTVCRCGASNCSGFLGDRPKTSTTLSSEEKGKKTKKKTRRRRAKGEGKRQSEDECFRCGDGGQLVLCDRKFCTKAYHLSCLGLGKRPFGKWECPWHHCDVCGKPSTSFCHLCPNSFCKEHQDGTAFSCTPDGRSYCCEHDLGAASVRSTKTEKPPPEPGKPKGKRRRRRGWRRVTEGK

[11] = target: Glyceraldehyde-3-phosphate dehydrogenase (Homo sapiens, UniProt P04406)
[12] = target: T7, Alkaline phosphatase, tissue-nonspecific isozyme (Homo sapiens, UniProt P05186); assay: potency against alkaline phosphatase TNAP – biochemical, luminescent, dose response, SAR follow-up (AID 1056)
T7 sequence (P05186 whole entry): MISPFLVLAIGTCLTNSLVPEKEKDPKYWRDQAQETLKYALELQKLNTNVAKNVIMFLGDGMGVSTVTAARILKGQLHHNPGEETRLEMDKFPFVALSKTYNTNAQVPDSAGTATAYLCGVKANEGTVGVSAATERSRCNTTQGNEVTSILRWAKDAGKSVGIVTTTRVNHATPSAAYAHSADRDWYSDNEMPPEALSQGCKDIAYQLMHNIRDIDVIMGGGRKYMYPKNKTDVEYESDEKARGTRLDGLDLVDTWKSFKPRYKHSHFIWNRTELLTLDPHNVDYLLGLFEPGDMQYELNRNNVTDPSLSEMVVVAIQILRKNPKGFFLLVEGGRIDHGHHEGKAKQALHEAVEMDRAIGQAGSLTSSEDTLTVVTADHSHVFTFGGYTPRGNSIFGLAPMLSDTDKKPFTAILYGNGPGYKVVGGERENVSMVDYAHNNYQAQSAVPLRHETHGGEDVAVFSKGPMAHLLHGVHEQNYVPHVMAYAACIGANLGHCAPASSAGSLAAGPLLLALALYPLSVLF

Cytochrome P450 3A4 = Cytochrome P450 3A4 (Homo sapiens, UniProt P08684); details: Potency;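 note: confirmatory qHTS run detecting inhibitors and substrates of CYP3A4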
Cytochrome P450 2C9 = Cytochrome P450 2C9 (Homo sapiens, UniProt P11712); details: Potency
Sequence of Cytochrome P450 2C9 (P11712 whole entry): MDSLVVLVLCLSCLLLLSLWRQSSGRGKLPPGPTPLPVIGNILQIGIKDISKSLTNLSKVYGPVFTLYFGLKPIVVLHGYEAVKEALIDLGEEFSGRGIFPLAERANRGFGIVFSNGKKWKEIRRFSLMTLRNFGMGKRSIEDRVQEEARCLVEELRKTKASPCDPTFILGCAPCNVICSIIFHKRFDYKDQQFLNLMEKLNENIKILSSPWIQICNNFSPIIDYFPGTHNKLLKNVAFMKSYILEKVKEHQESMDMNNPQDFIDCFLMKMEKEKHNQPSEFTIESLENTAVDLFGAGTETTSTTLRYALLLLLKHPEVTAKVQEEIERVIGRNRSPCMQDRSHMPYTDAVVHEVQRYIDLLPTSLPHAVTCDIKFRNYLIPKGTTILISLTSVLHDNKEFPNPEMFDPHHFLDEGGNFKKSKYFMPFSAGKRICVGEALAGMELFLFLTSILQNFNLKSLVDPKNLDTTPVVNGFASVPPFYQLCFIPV

Sequence of Cytochrome P450 3A4 (P08684 whole entry): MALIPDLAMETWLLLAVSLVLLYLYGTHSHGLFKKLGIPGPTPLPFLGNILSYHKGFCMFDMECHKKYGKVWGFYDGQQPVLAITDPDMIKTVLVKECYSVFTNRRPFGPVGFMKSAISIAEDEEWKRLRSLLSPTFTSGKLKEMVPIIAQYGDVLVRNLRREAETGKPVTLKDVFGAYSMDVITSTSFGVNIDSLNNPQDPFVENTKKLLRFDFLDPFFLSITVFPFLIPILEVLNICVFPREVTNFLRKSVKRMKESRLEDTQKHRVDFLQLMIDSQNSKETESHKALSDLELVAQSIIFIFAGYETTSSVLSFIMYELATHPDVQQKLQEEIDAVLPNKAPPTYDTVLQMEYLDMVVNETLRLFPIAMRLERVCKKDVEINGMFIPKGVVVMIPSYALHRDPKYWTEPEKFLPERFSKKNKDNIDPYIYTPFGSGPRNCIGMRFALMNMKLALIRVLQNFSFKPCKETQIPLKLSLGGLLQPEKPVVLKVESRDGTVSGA
T3 sequence (Q00975 whole entry): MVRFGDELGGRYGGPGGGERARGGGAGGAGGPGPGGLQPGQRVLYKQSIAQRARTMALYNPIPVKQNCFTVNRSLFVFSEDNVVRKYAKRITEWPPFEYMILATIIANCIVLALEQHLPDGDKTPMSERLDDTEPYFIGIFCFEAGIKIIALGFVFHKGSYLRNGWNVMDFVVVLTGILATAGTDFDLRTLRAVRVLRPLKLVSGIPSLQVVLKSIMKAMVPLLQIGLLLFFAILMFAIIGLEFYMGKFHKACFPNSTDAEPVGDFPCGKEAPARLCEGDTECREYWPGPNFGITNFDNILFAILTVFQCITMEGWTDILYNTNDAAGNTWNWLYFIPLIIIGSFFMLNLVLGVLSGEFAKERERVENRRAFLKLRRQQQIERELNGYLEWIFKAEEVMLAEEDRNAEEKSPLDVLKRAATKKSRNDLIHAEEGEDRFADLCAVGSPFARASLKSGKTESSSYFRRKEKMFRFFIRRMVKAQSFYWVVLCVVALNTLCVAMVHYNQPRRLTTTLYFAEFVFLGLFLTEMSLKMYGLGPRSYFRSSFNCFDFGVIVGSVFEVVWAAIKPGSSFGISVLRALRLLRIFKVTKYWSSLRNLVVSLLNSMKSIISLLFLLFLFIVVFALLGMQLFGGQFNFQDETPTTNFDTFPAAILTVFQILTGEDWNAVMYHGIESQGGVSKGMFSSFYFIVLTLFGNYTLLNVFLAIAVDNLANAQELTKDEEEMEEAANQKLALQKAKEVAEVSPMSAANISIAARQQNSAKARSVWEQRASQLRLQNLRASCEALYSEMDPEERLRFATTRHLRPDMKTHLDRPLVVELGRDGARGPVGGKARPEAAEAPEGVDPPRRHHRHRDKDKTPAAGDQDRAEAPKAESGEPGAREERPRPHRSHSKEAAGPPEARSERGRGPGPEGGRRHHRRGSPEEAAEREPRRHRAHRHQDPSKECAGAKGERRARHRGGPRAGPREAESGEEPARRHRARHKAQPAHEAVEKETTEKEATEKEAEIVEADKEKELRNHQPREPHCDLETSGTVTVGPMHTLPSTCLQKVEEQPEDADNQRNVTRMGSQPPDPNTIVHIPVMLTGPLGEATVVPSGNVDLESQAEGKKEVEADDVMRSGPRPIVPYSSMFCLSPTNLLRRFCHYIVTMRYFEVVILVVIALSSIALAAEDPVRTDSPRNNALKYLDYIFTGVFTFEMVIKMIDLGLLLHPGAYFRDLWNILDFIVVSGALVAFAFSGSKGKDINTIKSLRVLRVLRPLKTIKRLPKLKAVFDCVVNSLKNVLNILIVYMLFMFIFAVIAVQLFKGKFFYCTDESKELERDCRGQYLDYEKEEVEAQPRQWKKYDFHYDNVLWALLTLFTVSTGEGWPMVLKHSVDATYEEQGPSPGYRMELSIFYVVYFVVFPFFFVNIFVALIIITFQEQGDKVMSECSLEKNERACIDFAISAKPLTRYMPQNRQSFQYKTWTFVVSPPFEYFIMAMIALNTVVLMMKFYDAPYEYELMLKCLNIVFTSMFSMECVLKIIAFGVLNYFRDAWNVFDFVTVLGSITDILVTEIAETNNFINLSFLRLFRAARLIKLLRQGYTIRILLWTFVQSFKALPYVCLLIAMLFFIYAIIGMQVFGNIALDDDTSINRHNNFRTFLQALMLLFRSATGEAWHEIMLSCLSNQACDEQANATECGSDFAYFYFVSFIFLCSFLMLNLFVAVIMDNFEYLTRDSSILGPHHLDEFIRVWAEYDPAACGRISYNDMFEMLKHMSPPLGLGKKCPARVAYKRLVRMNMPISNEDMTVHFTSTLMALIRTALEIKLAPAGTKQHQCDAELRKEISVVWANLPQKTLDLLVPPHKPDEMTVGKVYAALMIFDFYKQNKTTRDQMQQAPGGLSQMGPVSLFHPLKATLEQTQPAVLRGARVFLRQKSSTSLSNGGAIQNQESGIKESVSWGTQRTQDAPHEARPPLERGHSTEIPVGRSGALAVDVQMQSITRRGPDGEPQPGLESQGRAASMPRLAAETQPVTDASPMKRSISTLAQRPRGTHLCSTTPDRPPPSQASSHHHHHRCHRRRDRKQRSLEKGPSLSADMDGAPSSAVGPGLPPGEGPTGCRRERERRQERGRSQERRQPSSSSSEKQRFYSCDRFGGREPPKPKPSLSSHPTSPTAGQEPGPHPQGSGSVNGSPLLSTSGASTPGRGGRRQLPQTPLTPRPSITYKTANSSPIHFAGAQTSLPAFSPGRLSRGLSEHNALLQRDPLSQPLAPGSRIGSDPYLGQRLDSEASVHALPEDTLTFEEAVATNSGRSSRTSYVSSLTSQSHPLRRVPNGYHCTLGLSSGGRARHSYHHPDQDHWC
T3 sequence (Q02410 whole entry): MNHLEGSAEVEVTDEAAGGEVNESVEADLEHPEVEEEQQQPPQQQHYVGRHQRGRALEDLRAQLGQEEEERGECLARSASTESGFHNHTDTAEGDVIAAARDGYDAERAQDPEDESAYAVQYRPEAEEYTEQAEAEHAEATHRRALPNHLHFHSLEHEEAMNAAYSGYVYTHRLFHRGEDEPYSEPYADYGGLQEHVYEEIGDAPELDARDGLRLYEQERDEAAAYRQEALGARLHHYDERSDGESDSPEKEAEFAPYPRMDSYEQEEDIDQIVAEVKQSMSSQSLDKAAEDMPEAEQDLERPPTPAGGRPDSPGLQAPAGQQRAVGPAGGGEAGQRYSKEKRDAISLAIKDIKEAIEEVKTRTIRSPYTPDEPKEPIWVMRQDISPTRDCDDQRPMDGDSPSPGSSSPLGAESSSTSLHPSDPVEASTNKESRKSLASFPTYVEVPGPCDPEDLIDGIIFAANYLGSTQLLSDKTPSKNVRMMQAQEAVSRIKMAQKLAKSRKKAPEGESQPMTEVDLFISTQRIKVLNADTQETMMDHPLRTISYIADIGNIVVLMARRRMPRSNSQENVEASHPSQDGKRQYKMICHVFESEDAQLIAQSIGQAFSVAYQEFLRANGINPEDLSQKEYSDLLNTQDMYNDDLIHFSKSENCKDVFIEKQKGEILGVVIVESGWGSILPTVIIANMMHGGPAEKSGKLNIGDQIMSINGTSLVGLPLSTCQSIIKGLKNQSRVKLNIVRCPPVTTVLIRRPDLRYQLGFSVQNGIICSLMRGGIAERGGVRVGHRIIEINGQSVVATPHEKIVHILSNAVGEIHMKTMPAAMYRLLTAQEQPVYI
T5 sequence (P11940 whole entry, the tested form may be a part): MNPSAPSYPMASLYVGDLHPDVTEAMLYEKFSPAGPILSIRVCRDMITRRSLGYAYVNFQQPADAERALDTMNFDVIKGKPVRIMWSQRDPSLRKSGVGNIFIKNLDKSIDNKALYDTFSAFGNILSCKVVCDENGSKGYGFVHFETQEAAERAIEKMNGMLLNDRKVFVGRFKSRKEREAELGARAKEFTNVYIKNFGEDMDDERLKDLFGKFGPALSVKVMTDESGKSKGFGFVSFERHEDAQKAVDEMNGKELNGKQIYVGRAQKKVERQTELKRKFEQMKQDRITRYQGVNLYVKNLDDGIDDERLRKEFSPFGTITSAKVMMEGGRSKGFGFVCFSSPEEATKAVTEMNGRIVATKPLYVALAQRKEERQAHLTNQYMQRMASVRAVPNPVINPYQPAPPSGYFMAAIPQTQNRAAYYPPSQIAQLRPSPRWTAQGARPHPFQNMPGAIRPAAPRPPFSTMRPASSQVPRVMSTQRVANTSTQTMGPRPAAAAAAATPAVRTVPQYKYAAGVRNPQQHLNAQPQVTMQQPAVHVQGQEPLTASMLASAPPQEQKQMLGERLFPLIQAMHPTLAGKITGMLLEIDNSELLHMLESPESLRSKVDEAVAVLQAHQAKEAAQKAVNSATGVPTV

Which EC50 [1] does the source give for `CCN(CC)Cc1cc(O)c(CN(CC)CC)cc1O` here?
The EC50 was 14.2 µM (active).

What about the EC50 [2] of the same compound?
The EC50 was 2.77 µM (active).

What about the IC50 [3] of the same compound?
Its IC50 is > 56.8 µM (not active).

And the IC50 [4]?
Its IC50 is 2.05 µM (active).

What about the IC50 [5] of the same compound?
The IC50 was 1.58 µM (active).

And the IC50 (Hexokinase HKDC1)?
Its IC50 is 17.4 µM (active).

What about the CC50 (Vero [6]) of the same compound?
The CC50 was > 40 µM (active).

And the CC50 (Vero [7])?
Its CC50 is > 25 µM (active).

And the IC50 (Genome polyprotein)?
Its IC50 is 28.1 µM (active).

What about the IC50 [8] of the same compound?
The IC50 was > 66 µM (inactive).

And the IC50 [9]?
Its IC50 is > 66 µM (inactive).

And the AC50 [10]?
The AC50 was > 20 µM (inactive).

`COC(=O)c1ccc(OC)c(S(=O)(=O)Nc2ccc3ccccc3c2)c1` was tested. Which IC50 [11] did it give?
Its IC50 is > 10 µM (inconclusive).

What about the IC50 [12] of the same compound?
Its IC50 is > 10 µM (inactive).

`COc1ccc(OC2C(O)COC2/C=C/c2ccccc2)cc1` (stereo unspecified) was tested. Which AC50 (Cytochrome P450 3A4) did it give?
The AC50 was 3.16 µM (inconclusive) and 3.98 µM (inconclusive).

And the AC50 (Cytochrome P450 2C9)?
The AC50 was 3.16 µM (inconclusive) and 2.51 µM (inconclusive).

Source: ChEMBL document CHEMBL1201862, “PubChem BioAssay data set” (2004)
